The record followed here is publication PMC7092364 (European journal of medicinal chemistry, 2017).

Each structure is given as a SMILES string. Marks after values point to notes of the source that are not given here.

One data set deals with NC(11–55) peptide (Human immunodeficiency virus type 1 group M subtype B, UniProt P04591, I389N). Briefly: Nucleic acid destabilization assay. Type of data set: biochemical, HIV-1 MAL strain. As to conditions: 200 μM of compound.
A further data set deals with MT-2 cells. Type of data set: cell-based. To be noted: human, 72 h.
Data set [1] addresses full-length recombinant NC (1–55) (Human immunodeficiency virus type 1 group M subtype B, UniProt P12493). Briefly: Non-denaturing ESI-MS binding and binding competition with NC. More on the design: species or system HIV-1 LAI strain. To be noted: for complex formation with NC (ESI-MS): 5 μM NC, ten-fold compound concentration.

With `O=c1[nH]c2cc(S(=O)(=O)Nc3ccc4[nH]ncc4c3)ccc2o1` [5–06, N-(1H-indazol-5-yl)-2-oxo-2,3-dihydro-1,3-benzoxazole-5-sulfonamide], the “inhibition of the NC-induced cTAR55 destabilization” value against NC(11–55) peptide is “by half”. Moreover, the TD50 with MT-2 cells is 140^# (75.0–378.0) μM. In addition, in data set [1], the “complex formation with NC (ESI-MS)” value is reported as “stable 1:1 complexes”. For the same compound, in data set [1] (from fractional occupancies), the “affinity of 5–06 for NC relative to compound 5” value is recorded as “two to three-fold higher affinity”.

For the compound `Cc1ccc(NS(=O)(=O)c2ccc3oc(=O)[nH]c3c2)c(C)c1` [compound 5, N-(2,4-dimethylphenyl)-2-oxo-2,3-dihydro-1,3-benzoxazole-5-sulfonamide], the “complex formation with NC (ESI-MS)” value in data set [1] was “stable 1:1 complexes”.
